Series [1] concerns Cx43 protein. In words: Cx43 protein levels / immunostaining at skin wound sites. The format is in vivo, mice. The protocol:
(§1) Male, 8 week old, ICR mice were used in the following experiments. All the mice were kept under specific pathogen-free conditions in an environmentally controlled clean room at University College London and all the experiments were carried out under UK Home Office regulations. Mice were anaesthetized by halothane inhalation. Four full-thickness excisional wounds of 6 mm diameter were made on the shaved back on either side of the dorsal midline with a 6 mm biopsy punch (Kai Industries). To each pair of wounds a single topical application of 50 μl of 1 μM Cx43 as ODN (SEQ. ID No. 2) (Sigma-Genosys) in 30% Pluronic F-127 gel (Sigma-Aldrich), chilled on ice, was made to one wound, and an identical application of 1 μM sense control sODNs was made to the other. […] R. and Becker, D. L. (2003). Targeting connexin 43 expression accelerates the rate of wound repair. Curr Biol 13, 1697-703). Each wound region was digitally photographed at the indicated time intervals, and the areas of the wounds were calculated. All wound areas were expressed as percentages of the initial wound areas. In some series of experiments, wounds and their surrounding area, including the scab and epithelial margins, were harvested with an 8 mm biopsy punch (Kai Industries) at the indicated time intervals after mice were killed with an overdose of chloroform. A minimum of eight mice were used for each time point examined.
Immunostaining for connexin 43, blood vessels or a smooth muscle actin was carried out on cryostat sections of wounds. Sections were fixed in acetone at 4° C. for 5 minutes prior to blocking for 45 minutes. Incubation in primary antibody was for one hour at the following dilutions: rabbit anti-Cx43 (Sigma) 1:3,000; isoLectin B_FITC 1:2000; von Willebrand Factor (rabbit Dako) 1:400; anti-α smooth muscle actin (Sigma) 1:400 at room temperature. Sections were washed for 3×5 minutes in PBS before a one hour incubation in anti-rabbit-FITC secondary antibody (Dako) 1:200 at room temperature. Washing 3×5 minutes in PBS, in some cases with 1 μM bis-benzimide (Sigma) in the first wash as a nuclear counter stain, and mounted in Citifluor (Citifluor, London, UK). Sections were imaged by confocal microscopy with all parameters kept constant to allow direct comparison of digital images.

Series [2] relates to blood vessels. Kind of series: Angiogenesis at wound sites (von Willebrand factor, CD31, isolectinB staining). In kind it is in vivo, mice. The protocol: as §1
Wound tissues were fixed in 4% formaldehyde buffered with PBS, and embedded in paraffin. Sections ([…] thick) were subjected to hematoxylin and eosin staining or immunostaining. Measurement of granulation tissue area in H&E was performed using Improvision Openlab™ 4.0.2 software (Improvision). For immunohistochemistry, deparaffinized sections were treated with endogenous peroxidase blocking reagent (Dako Cytomation A/S) and proteinase K (Dako Cytomation A/S) for 20 minutes and 6 minutes at room temperature, respectively. They were then incubated with rabbit antimyeloperoxidase (MPO) polyclonal antibody (NeoMarkers) diluted 1:200, rat anti-mouse F4/80 monoclonal antibody (mAb) (Abcom Limited) diluted 1:400 or rat antimouse CD31 (platelet endothelial cell adhesion molecule 1, PECAM-1) mAb (PharMingen) or rabbit anti-mouse TGF-β1 polyclonal antibody (Santa Cruz Biotechnology, Inc) both diluted 1:200 overnight at 4° C. after blocking with 15% skimmed milk for 1 hour at room temperature. In addition, some sections were reacted with phalloidin-tetramethylrhodamine B isothiocyanate (Sigma-Aldrich) diluted 1:500 for 1 hour at room temperature. The antibodies were appropriately diluted in Antibody Diluent with Background Reducing Components (Dako Cytomation A/S). The sections reacted with anti-MPO antibody and anti TGF-β1 antibody were stained with EnVision+™ (Dako Cytomation A/S) to enhance the signal, according to the manufacturer's instructions. The sections that had been reacted with anti-F4/80 and anti-CD31 antibodies were incubated with biotinylated rabbit anti-rat immunoglobulin (Dako Cytomation A/S) diluted 1:200 for 1 hour at 37° C. The signal was then enhanced using the Catalyzed Signal Amplification System® (Dako Cytomation A/S) according to the manufacturer's instructions. Thereafter, counterstaining was performed with methyl green (Dako Cytomation A/S) followed by MPO, TGF-β1, F4/80, and CD31 staining or 4′,6-diamidino-2-phenylindole (DAPI) followed by phalloidin staining. […]

For series [3], the system named is IGFBP-2. Kind of series: Growth factor/cytokine antibody array of chimera: IGFBP-2. The following applies: after two weeks in culture. The format is cell-based, human. Here is the method: Cell denuded pig stroma chimeras were cultured for two weeks and then assessed using a growth factor/cytokine antibody array (measures protein levels of 120 different growth factors/cytokines.
After two weeks in culture the chimeras were cut in half: one half for histological analysis, and the other for growth factor and cytokine array analysis. For growth factor and cytokine analysis the central stromal region (with fully recovered human cell epithelium) and partially repopulated stroma (human keratocytes) was removed and homogenised separately from the human limbal rim which contains stem cell populations. The homogenates were run on a growth factor/cytokine array (FIG. 15) and analysis of growth factor levels performed using densitometry analysis of the array membranes.

For series [4], the system named is myofibroblasts. In words: Anti-α smooth muscle actin staining of myofibroblasts in granulation tissue. The format is in vivo, mice. The protocol:
as §1
Immunostaining for connexin 43, blood vessels or a smooth muscle actin was carried out on cryostat sections of wounds. Sections were fixed in acetone at 4° C. for 5 minutes prior to blocking for 45 minutes. Incubation in primary antibody was for one hour at the following dilutions: rabbit anti-Cx43 (Sigma) 1:3,000; isoLectin B_FITC 1:2000; von Willebrand Factor (rabbit Dako) 1:400; anti-α smooth muscle actin (Sigma) 1:400 at room temperature. […]
A treatment-blinded observer counted MPO-positive neutrophils and F4/80-positive macrophages in the wound bed (defined as the area surrounded by unwounded skin, fascia, regenerated epidermis, and eschar) in 3 random high-power fields of 0.332 mm^2. BrdU-positive cells in the wound margin and the nascent epidermis regions of each immunohistochemically stained section were counted as described previously and expressed per […] of epidermis (Mori, R., Kondo, T., Nishie, T., Ohshima, T. and Asano, M. (2004). Impairment of skin wound healing in beta-1,4-galactosyltransferase-deficient mice with reduced leukocyte recruitment. Am J Pathol 164, 1303-14). Number of fibroblast like cells (phalloidin-positive cells with spindle-shape body) at the wound margin were counted in high-power fields also (each field was 0.332 mm^2). […] Images were made binary at a standard threshold and positive pixels were counted using Image J (NIH Image).

As for “GTAATTGCGGCAGGAGGAATTGTTTCTGTC (antisense GTAATTGCGGCAGGAGGAATTGTTTCTGTC; in Pluronic F-127 gel, further chemistry not given here) [Cx43 asODN]”, the “Cx43 protein immunostaining in epidermis and dermis of wound edge” value in series [1] (day 1, compared to controls) was “very low levels”. Further, the “Cx43 protein immunostaining of wound” value in series [1] (day 2) is recorded as “some Cx43 staining had returned to the dermis of the Cx43 asODN-treated wound but the level was still very low in the epidermis”. Further, the “Cx43 staining, treated versus untreated” value in series [1] (day 7) is on record as “no obvious difference”. Besides, the “duration of Cx43 protein down-regulation in wound-site epidermis and dermis” value in series [1] (delivered from Pluronic F-127 slow-release gel) was “at least 24 hours”. The “protein levels of Cx43 in the epidermis and dermis” value in series [1] (within two hours of treatment, delivery from the time of injury) is listed as “markedly reduced”. In addition, in series [2] (5 days, none in control wounds), the “blood vessel staining in granulation tissue” value is reported as “staining was seen in the edges of the granulation tissue of all”. For the same sequence, in series [2] (7 days P=0.0019, 10 days P=0.015), the “quantified blood vessel staining, treated versus controls” value is recorded as “significantly more staining in controls”. The “size of blood vessels and extent of staining, treated versus control” value in series [2] (14 days) is listed as “very similar”. Also, the “wounds with fine blood vessels throughout the entire granulation tissue” value in series [2] (day 7) is reported as “five out of six”. In addition, the “enhancement of the rate of wound maturation” value in series [2] (mouse, in vivo) was in the range of 2 to 3 days. Moreover, in series [3], the “level of IGFBP-2 in limbal rim and stroma compared with untreated controls” value is given as “higher levels”. The “SMA staining at the edges of the granulation tissue” value in series [4] (10 days after wounding, P=0.000002 versus control) is “most of the staining for SMA had gone”. Further, the SMA staining result in series [4] (day 5, no staining in control wounds) is “could be detected at the edges of the granulation tissue”. For the same sequence, the “SMA staining at the edges of the granulation tissue, quantified” value in series [4] (day 7, P=0.004 versus control) was “significantly higher”. For the same sequence, the “advance over controls in maturation of granulation tissue” value in series [4] (mouse, in vivo) lay within 2 to 3 days.

The record behind these values is patent US9457044B2, “Methods and compositions for wound healing” (CoDa Therapeutics, Inc., priority 2006, dated 2016).
